Earlier results on four molecules are cited in patent US20230133919A1, “COMPOSITIONS AND RELATED METHODS FOR REDUCING VAPOR EFFECT OF VOLATILE HERBICIDES” (BOARD OF TRUSTEES OF MICHIGAN STATE UNIVERSITY, priority 2020, published 2023).

For the series the following is noted: approximate.

With `CCCCC(CC)COC(=O)COc1ccc(Cl)cc1Cl` (stereo not shown) [2,4-D (2-ethylhexyl ester)], the vapor pressure is ~4.8×10^−4 Pa.
Turning to `CCCCOCCOC(=O)COc1ccc(Cl)cc1Cl` [2,4-D (butoxyethyl ester)], the vapor pressure is ~3.2×10^−4 Pa.
As to `CNC.O=C(O)COc1ccc(Cl)cc1Cl` [2,4-D (dimethylamine salt)], the vapor pressure is given as ~1.3×10^−5 Pa.
Consider `CC(C)OC(=O)COc1ccc(Cl)cc1Cl` [2,4-D (isopropyl ester)], for which the vapor pressure is reported as ~1.9×10^1 Pa.
